Data from PMC6368337, “GluClR-mediated inhibitory postsynaptic currents reveal targets for ivermectin and potential mechanisms of ivermectin resistance” (PLoS Pathogens, 2019).

Legend:
α GluClRs = test: IPSC recording in HEK293-neuron heteroculture, α GluClRs; assay type: cell-based, H. contortus; settings: 5 nM IVM
Protocol: (§1) cDNAs encoding the α (avr-14b) (pcDNA 3.1+) or β (pUNIV) GluClR subunits of H. contortus were nuclear injected into oocytes (NASCO, WI USA) or transfected into HEK293AD cells (CellBank Australia) using a calcium phosphate-DNA co-precipitate method. Synapse formation between neurons and HEK293 cells was promoted by co-transfecting neuroligin 2A or 1B and the cDNA encoding CD4 surface antigen was also added to the transfection mixture so as to identify transfected cells. The oocytes and HEK cells were used for experiments 2–3 days after the introduction of the cDNAs. All experiments were done at room temperature (22 ± 1°C).
Primary neuronal cultures were prepared from cortices of E18 rat embryos, (University of Queensland Biological Services), which were triturated and plated at 100,000 cells per 18-mm poly-D-lysine-coated coverslip in DMEM with 10% fetal bovine serum. After 24 h the entire medium was replaced with Neurobasal medium that included 2% B27 and 1% GlutaMAX supplements. After one week half of this medium was replaced and the neurons were allowed to grow in vitro for 3–5 weeks before introducing the transfected HEK293 cells. Recordings of synaptic currents were done in whole-cell configuration at ‐70 mV using an Axopatch 200B amplifier (Molecular Devices), filtered at 5 kHz and digitized at 20 kHz using Clampex (pClamp 10 suite, Molecular Devices) via a Digidata 1440A digitizer.

β GluClRs = β GluClRs (Haemonchus contortus, UniProt P91730); test: Two-electrode voltage clamp in oocytes, β GluClRs; assay type: cell-based, H. contortus; settings: EC50, oocytes, −40 mV
β GluClRs, sequence (P91730 19-432): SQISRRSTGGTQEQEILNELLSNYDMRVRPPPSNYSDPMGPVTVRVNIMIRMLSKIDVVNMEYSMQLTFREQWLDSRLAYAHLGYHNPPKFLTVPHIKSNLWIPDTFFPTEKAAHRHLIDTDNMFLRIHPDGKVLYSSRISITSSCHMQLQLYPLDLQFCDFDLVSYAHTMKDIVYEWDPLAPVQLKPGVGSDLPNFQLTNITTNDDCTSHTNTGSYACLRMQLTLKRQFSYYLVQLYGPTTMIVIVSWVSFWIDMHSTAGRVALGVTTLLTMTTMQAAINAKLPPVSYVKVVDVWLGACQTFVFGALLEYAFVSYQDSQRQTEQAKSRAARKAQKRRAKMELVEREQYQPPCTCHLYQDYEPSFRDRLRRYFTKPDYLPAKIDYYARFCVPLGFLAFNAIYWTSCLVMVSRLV
Protocol: as §1
Xenopus laevis oocytes were harvested by surgical incision. The oocytes were then defolliculated with 1.5 mg/ml collagenase for 2 hours. Free oocytes were rinsed with calcium-free OR-2 solution containing (in mM) 82.5 NaCl, 2 KCl, 1 MgCl2, 5 HEPES, pH 7.4 and mature stage V or VI oocytes were isolated for experiments. The DNAs coding for α and β subunits were nuclear injected into the oocytes using a Nanoliter 2000 microinjector (WPI Inc) at a ratio of (α:β), 1:0, 0:1, 1:1 and 1:50. […]
Group data were analysed in SigmaPlot 13.0 using one-way ANOVAs, where p < 0.05 was taken as the significance threshold and expressed as mean ± SEM. […] Confocal images were captured and analysed with Zen 2012 SP2 (Zeiss) software. […] Single channel recordings were analysed in QuB software. […]

[1] = tested on: homomeric α (avr-14b) GluClRs; settings: cited from earlier work
αβ (1:50) GluClRs = αβ (1:50) GluClRs (Haemonchus contortus, UniProt O46124+P91730); test: Two-electrode voltage clamp in oocytes, αβ (1:50) GluClRs; assay type: cell-based, H. contortus
αβ (1:50) GluClRs, sequence (O46124 entry or part of it): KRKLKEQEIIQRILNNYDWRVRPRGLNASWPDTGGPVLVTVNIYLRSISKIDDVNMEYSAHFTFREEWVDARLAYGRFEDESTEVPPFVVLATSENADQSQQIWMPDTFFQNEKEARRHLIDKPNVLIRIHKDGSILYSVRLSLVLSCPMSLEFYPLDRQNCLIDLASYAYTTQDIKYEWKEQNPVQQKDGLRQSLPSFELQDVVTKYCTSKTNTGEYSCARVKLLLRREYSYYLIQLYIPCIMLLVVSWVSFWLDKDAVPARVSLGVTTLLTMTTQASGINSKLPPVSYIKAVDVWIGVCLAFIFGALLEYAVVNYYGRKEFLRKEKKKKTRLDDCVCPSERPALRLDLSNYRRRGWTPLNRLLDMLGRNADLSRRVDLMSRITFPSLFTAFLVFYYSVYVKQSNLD
αβ (1:50) GluClRs, sequence (P91730 19-432): as the sequence (P91730 19-432) above
Protocol: as §1
Xenopus laevis oocytes were harvested by surgical incision. The oocytes were then defolliculated with 1.5 mg/ml collagenase for 2 hours. Free oocytes were rinsed with calcium-free OR-2 solution containing (in mM) 82.5 NaCl, 2 KCl, 1 MgCl2, 5 HEPES, pH 7.4 and mature stage V or VI oocytes were isolated for experiments. The DNAs coding for α and β subunits were nuclear injected into the oocytes using a Nanoliter 2000 microinjector (WPI Inc) at a ratio of (α:β), 1:0, 0:1, 1:1 and 1:50. The total amount of injected DNA in all combinations was 400 ng ml^−1, including the 1:50 (α:β) combination (8 ng of DNA encoding the α and 392 ng of DNA encoding β subunits). Injected oocytes were incubated in ND96 storage solution (in mM) 96 NaCl, 2 KCl, 1 MgCl2.6H2O, 1.8 CaCl2, 5 HEPES, 50 μg ml^−1 gentamicin, 2.5 sodium pyruvate, 0.5 theophylline, pH 7.4 at 16°C for 2–3 days before experiment.
For the two-electrode voltage clamp recordings, each oocyte was secured in a cell bath that was continually perfused with ND96 recording solution (ND96 storage solution without pyruvate, theophylline and gentamicin). […] The two microelectrodes contained 3 M KCl and had resistances of 0.2–2 MΩ. Recordings were done using Clampex 10.2 software (Molecular Devices) at a clamped voltage of −40 mV. Currents were low-pass filtered at 200 Hz, sampled at 2 kHz using a Gene Clamp 500B amplifier and digitised by a Digidata 1440A interface. The IVM (IVM B1a) concentration-response experiments were standardised by using an application protocol that consisted of applying increasing concentrations of IVM for, respectively, 3 min, 3 min, 3 min, 2 min, 1 min, 1 min and 0.5 min.
Group data were analysed in SigmaPlot 13.0 using one-way ANOVAs, where p < 0.05 was taken as the significance threshold and expressed as mean ± SEM. Tests for normally distributed data are built into the SigmaPlot software. Confocal images were captured and analysed with Zen 2012 SP2 (Zeiss) software. Oocyte concentration-response data were fit to a Hill equation to obtain an EC50 and Hill co-efficient for each oocyte recording. These parameters were then averaged across multiple oocyte experiments of the same type. Single channel recordings were analysed in QuB software. […] The selected critical times eliminated periods of receptor desensitisation while retaining singe receptor active periods. Mean active period duration and intra-activation open probability was estimated from each patch. Group means were obtained by averaging across multiple patches for each recording condition.

CC[C@H](C)[C@H]1O[C@]2(CC[C@@H]1C)C[C@@H]1C[C@@H](C/C=C(\C)[C@@H](O[C@H]3C[C@H](OC)[C@@H](O[C@H]4C[C@H](OC)[C@@H](O)[C@H](C)O4)[C@H](C)O3)[C@@H](C)/C=C/C=C3\CO[C@@H]4[C@H](O)C(C)=C[C@@H](C(=O)O1)[C@]34O)O2 [IVM, Ivermectin]
IPSC activation (10–90% rise) time (α GluClRs; 15 minutes): 19 ± 1 ms | peak IPSC amplitude (α GluClRs; 15 minutes): 122 ± 39 pA | IPSC decay time constant (α GluClRs; 15 minutes after start of application, −70 mV): 100 ± 3 ms | EC50 (β GluClRs): > 10 µM | time over which single receptor active periods increase in duration after exposure [1]: 1 to 2 min | differential efficacy between α and αβ (1:50) GluClRs (αβ (1:50) GluClRs; 30 nM, α versus αβ (1:50)): maintained | EC50 (αβ (1:50) GluClRs; EC50, oocytes, cDNA injection ratio α:β 1:50, −40 mV): 0.141 ± 0.011 µM | Hill co-efficient (αβ (1:50) GluClRs; oocytes, α:β 1:50, −40 mV): 1.6 ± 0.1 | Emax (αβ (1:50) GluClRs; read-out: maximal response, % of saturating glutamate response): 33%
